Experimental data as given in US20240254087A1, “SELECTIVE, PARTIAL, AND ARRESTIN-BIASED 5-HT2A AGONISTS WITH UTILITY IN VARIOUS DISORDERS” (Saint Joseph's University, priority 2021, published 2024).
Structures can show the parent of a compound that is named as a salt.

SMILES | melting point [°C]
COc1cc([N+](=O)[O-])c(OC)cc1CCNCc1ccccc1O (as salt: HCl) [25N-NBOH (3), 2-({[2-(2,5-dimethoxy-4-nitrophenyl)ethyl]amino}methyl)phenol] | 205 to 206.7
COc1cc([N+](=O)[O-])c(OC)cc1CCNCc1ccccc1OC (as salt: HCl) [25N-NBOMe (4), [2-(2,5-dimethoxy-4-nitrophenyl)ethyl] [(2-methoxyphenyl)methyl]amine] | 166.4 to 167.8
COc1cc([N+](=O)[O-])c(OC)cc1CCNCc1ccccc1-c1ccccc1 (as salt: HCl) [25N-NBPh (17), ({[1,1′-biphenyl]-2-yl}methyl)[2-(2,5-dimethoxy-4-nitrophenyl)ethyl]amine] | 181.5 to 182.5
COc1cc(CCNCc2cccc3ccccc23)cc(OC)c1Br (as salt: HCl) [(31), 2-(4-bromo-3,5-dimethoxyphenyl)-N-[(naphthalen-1-yl)-methyl]ethan-1-amine] | 232.8 to 234.3
COc1cc(Br)cc(OC)c1CC(C)NCc1cccc2ccccc12 (centres unmarked) (as salt: HCl) [(33)] | 207.9 to 209.2
COc1cc(Br)c(CCNCc2cccc(C)c2O)cc1OC (as salt: HCl) [(43), 2-(((2-bromo-4,5-dimethoxyphenethyl)-amino)-methyl)-6-methylphenol] | 169.4 to 169.9
COc1cc(OC)c(OC)cc1CCNCc1cccc(I)c1 (as salt: HCl) [(53), N-(3-iodobenzyl)-2-(2,4,5-trimethoxyphenyl)-ethan-1-amine] | 155.5 to 156.1
COc1cc(OC)c(OC)cc1CCNCc1ccccc1-c1cccs1 (as salt: HCl) [(59), N-(2-(thiophen-2-yl)benzyl)-2-(2,4,5-trimethoxyphenyl)-ethan-1-amine] | 158.4 to 159.8
